Data published in patent publication US7253295B2, “Chloride channel opener” (Sucampo AG, priority 2001, dated 2007).

molecular target: T1, recombinant human ClC-2 Chloride Channels (Homo sapiens, UniProt P51788); test: Whole cell patch clamp, ClC-2 transfected HEK cells, current increase (Test Example 4); type: cell-based; conditions: 100 nM, change from control
T1 construct: His; T7; expressed in transfected cells; host or cells: HEK-293 (ATCC), pcDNA3.1, G-418 selected
T1 sequence (P51788 1-898): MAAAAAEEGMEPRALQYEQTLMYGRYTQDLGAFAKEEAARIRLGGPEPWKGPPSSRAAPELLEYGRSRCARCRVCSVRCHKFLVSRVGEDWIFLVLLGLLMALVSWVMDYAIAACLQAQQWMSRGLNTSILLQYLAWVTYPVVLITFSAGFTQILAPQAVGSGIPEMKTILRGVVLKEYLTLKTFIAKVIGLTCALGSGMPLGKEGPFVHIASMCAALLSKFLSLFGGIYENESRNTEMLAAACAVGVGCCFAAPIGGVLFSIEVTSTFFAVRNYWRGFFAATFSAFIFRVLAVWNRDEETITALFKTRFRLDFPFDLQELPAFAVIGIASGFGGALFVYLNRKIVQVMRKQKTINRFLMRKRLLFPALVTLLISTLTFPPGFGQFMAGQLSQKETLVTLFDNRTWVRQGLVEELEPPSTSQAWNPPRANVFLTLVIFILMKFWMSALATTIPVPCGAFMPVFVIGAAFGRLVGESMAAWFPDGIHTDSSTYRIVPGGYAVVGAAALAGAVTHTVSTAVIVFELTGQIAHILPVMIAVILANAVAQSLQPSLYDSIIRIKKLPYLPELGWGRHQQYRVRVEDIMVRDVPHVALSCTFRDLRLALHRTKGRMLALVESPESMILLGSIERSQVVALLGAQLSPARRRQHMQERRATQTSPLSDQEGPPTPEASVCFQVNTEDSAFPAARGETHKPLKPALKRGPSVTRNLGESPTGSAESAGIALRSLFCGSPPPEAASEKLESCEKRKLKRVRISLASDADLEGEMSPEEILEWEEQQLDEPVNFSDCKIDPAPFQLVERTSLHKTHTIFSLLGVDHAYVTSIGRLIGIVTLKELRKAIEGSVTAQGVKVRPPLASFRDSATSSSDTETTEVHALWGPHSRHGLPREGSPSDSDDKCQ
Protocol: According to the same manner as described in Example 1, whole cell patch clamp measurements were carried out.
Test compounds were used at a final concentration of 100 nM.

Row | Activation of ClC-2 channels ΔpA/pF [pA/pF] | SMILES
1 | 38.2 | CCCCC(F)(F)C1(O)CC[C@@H]2[C@@H](CCCCCCC(=O)NCC)[C@@H](O)C[C@H]2O1 (stereo partly drawn) [Compound 9, N1-ethyl-7-[(2,4aR,5R,6S,7aR)-2-(1,1-difluoropentyl)-2,6-dihydroxyperhydrocyclopenta[b]pyran-5-yl]heptanamide]
2 | 24.6 | CCCCC(F)(F)C(O)CC[C@H]1[C@H](O)CC(=O)[C@@H]1CCCCCCC(=O)O (stereo partly shown) [Compound 8, 13,14-dihydro-16,16-difluoro-PGE1]

test system: AS-HBE cells; test: Short-circuit current in AS-HBE cells (Test Example 3); type: cell-based, human; conditions: 250 nM
Protocol: AS-HBE is a human bronchial epithelial (HBE) cell line expressing the first 131 nucleotides of CFTR in the antisense direction (antisense CFTR 16HBE14o- cells, HBE-AS; also called AS-HBE). As a result, AS-HBE cells lack CFTR transcripts and lack functional CFTR. However, AS-HBE cells do express functional ClC-2 in a manner identical to the parental cell line, 16HBE14o- cells, from which they were derived. AS-HBE cells were maintained at 37° C. in 5%/95% CO2/O2 in Minimal Essential Medium (MEM; GIBCO/Invitrogen, Carlsbad, Calif.) supplemented with Earl's salt, L-glutamine (GIBCO/Invitrogen), 10% heat-inactivated fetal bovine serum, 100 units/ml penicillin, 100 μg/ml streptomycin sulfate and 400 μg/ml G-418 (GIBCO/Invitrogen). The cells were grown in air-liquid interface on Biocoat inserts (Fisher Scientific, Chicago, Ill.), coated with human plasma fibronectine (GIBCO/Invitrogen) and vitrogen (Cohesion Technologies, Palo Alto, Calif.).
According to the same manner as described in Example 2, Short-circuit current measurements in the AS-HBE cells were carried out. Changes in short-circuit current (ΔIsc) were normalized to the filter area (0.3 cm^2) and reported as ΔIsc/cm^2.
Test compounds were used at a final concentration of 250 nM.

Row | SMILES | Changes in short-circuit currents (Δlsc) [μA/cm^2]
3 | CCCCCCC(F)(F)C1(O)CC[C@H]2[C@@H](CC(=O)[C@@H]2CCCCCCCCC(=O)OC(C)C)O1 (stereo partly drawn) [Compound 5, Isopropyl (−)-9-[(4aR,5R,7aR)-2-(1,1-difluoroheptyl)-2-hydroxy-6-oxoperhydrocyclopenta[b]pyran-5-yl]nonanoate] | 0.3
4 | CCCCC[C@H](O)/C=C/[C@@H]1[C@H]2C/C(=C/CCCC(=O)[O-])O[C@H]2C[C@H]1O.[Na+] [Compound 7, PGI2-Na, reference compound] | 1.0
5 | CCCCC(F)(F)C(=O)/C=C/[C@H]1[C@H](O)CC(=O)[C@@H]1CCCCCCC(=O)O [Compound 4, 15-keto-16,16-difluoro-PGE1] | 1.0
6 | CCCCC(F)(F)C1(O)CC[C@H]2[C@@H](CC(=O)[C@@H]2CCCCCCC(=O)NCC)O1 (stereo partly drawn) [Compound 3, N1-ethyl-7-[(2,4aR,5R,7aR)-2-(1,1-difluoropentyl)-2-hydroxy-6-oxoperhydrocyclopenta[b]pyran-5-yl]heptanamide] | 2.7
7 | CCCCC[C@H](O)/C=C/[C@@H]1[C@@H](C/C=C\CCCC(=O)O)[C@@H](O)C[C@H]1O [Compound 6, PGF2α, reference compound] | 0.7
